Earlier results as cited in patent publication US20240011040A1, “SALICYLIC ACID-INDUCIBLE GENE EXPRESSION COMPOSITIONS AND SYSTEMS FOR CELLS” (UNIVERSITY OF HOUSTON SYSTEM, priority 2020, published 2024).

Key:
[1] = molecular target: T1, Arabidopsis thaliana (At) NPR4 (Arabidopsis thaliana, UniProt Q5ICL9); settings: AtNPR4, high-affinity sensor of SA
T1 sequence (Q5ICL9 1-574): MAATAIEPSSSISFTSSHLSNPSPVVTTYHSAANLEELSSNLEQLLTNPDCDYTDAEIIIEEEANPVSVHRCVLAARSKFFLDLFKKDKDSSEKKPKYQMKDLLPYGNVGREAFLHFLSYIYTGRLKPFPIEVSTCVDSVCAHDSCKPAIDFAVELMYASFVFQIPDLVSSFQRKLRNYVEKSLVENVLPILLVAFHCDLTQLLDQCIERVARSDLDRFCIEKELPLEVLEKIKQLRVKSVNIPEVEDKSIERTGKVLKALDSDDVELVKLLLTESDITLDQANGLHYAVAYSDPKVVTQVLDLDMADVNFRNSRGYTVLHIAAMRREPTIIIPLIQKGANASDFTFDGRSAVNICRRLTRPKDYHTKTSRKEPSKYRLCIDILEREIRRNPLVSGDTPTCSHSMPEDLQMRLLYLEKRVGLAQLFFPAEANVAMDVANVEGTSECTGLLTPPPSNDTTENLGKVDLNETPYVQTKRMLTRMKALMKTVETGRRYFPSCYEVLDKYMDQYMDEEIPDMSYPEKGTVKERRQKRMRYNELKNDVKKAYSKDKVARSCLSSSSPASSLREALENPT

Kd [1] [nM]	Molecule	half-life in blood
24	O=C(O)c1ccccc1O [SA, salicylic acid]	
	EPO: glycoprotein cytokine secreted mainly by the kidney; stimulates red blood cell production	around 5 h
